According to patent publication US4452788A, “Substituted 8-phenylxanthines” (Warner-Lambert Company, priority 1982, dated 1984):
pIC50: −log10 of the molar value. Where a name gives a salt, the structure may show the parent alone. Read-outs that look alike come from different tables or passages of the source.

Columns and labels:
[1] = target: adenosine receptor; assay: adenosine receptor antagonism assayed by the procedure described in Proc. Natl. Acad. Sci. USA, 77, 5547 (1980); type: binding; details: procedure of Proc. Natl. Acad. Sci. USA, 77, 5547 (1980)
Excerpt: The relevant teachings of this manuscript are incorporated herein by reference.

[2] = target: adenosine receptor; details: *Results reported in Proc. Natl. Acad. Sci. USA, 77, 5547(1980); cited from earlier work

| Structure (SMILES) | pIC50 [1] | pIC50 [2] |
| --- | --- | --- |
| CCn1c(=O)c2[nH]c(-c3cccc(S(=O)(=O)O)c3)nc2n(CC)c1=O [C2 H5, C2 H5, H, 3-SO3 K, 3-(1,3-diethyl-2,3,6,7-tetrahydro-2,6-dioxo-1H-purin-8-yl)benzenesulfonic acid potassium salt] | 4.43 |  |
| CCn1c(=O)c2[nH]c(-c3ccc(S(N)(=O)=O)cc3)nc2n(CC)c1=O [C2 H5, C2 H5, H, 4-SO2 NH2, 4-(1,3-diethyl-2,3,6,7-tetrahydro-2,6-dioxo-1H-purin-8-yl)benzenesulfonamide] | 7.30 |  |
| Cn1c(=O)c2[nH]c(-c3ccc(S(=O)(=O)O)cc3)nc2n(C)c1=O [CH3, CH3, H, 4-SO3 H, 4-(1,3-dimethyl-2,3,6,7-tetrahydro-2,6-dioxo-1H-purin-8-yl)benzenesulfonicacid] |  | 4.70 |
| CCCn1c(=O)c2[nH]c(-c3ccc(S(=O)(=O)O)cc3)nc2n(CCC)c1=O [n-C3 H7, n-C3 H7, H, 4-SO3 K, 4-(1,3-dipropyl-2,3,6,7-tetrahydro-2,6-dioxo-1H-purin-8-yl)benzenesulfonic acid potassium salt] | 7.00 |  |
| Cn1c(=O)c2[nH]cnc2n(C)c1=O [theophylline] |  | 4.82 |

Now from value to compound, other results behind:

| pIC50 [1] | Structure (SMILES) | pIC50 [2] |
| --- | --- | --- |
| 6.26 | CCn1c(=O)c2[nH]c(-c3cccc(S(=O)(=O)NCCN(C)C)c3)nc2n(CC)c1=O [C2 H5, C2 H5, H, 3-SO2 NH(CH2)2 N(CH3)2, 3-(1,3-Diethyl-2,3,6,7-tetrahydro-2,6,-dioxo-1H-purin-8-yl)-N-[2-(dimethylamino)ethyl]benzenesulfonamide] |  |
| 6.82 | CCn1c(=O)c2[nH]c(-c3ccc(S(=O)(=O)N4CCN(C)CC4)cc3)nc2n(CC)c1=O [C2 H5, C2 H5, H, 4-SO2 N(CH2 CH2)2 NCH3, 1-[[4-(1,3-Diethyl-2,3,6,7-tetrahydro-2,6,-dioxo-1H-purin-8-yl)phenyl]sulfonyl]-4-methyl-piperazine] |  |
| 6.52 | CCn1c(=O)c2[nH]c(-c3ccc(S(=O)(=O)N4CCOCC4)cc3)nc2n(CC)c1=O [C2 H5, C2 H5, H, 4-SO2 N(CH2 CH2)2 O, 4-[[4-(1,3-Diethyl-2,3,6,7-tetrahydro-2,6-dioxo-1H-purin-8-yl)phenyl]sulfonyl]morpholine] |  |
| 7.15 | CCn1c(=O)c2[nH]c(-c3ccc(S(=O)(=O)NCCCN(C)C)cc3)nc2n(CC)c1=O [C2 H5, C2 H5, H, 4-SO2 NH(CH2)3 N(CH3)2, 4-(1,3-Diethyl-2,3,6,7-tetrahydro-2,6-dioxo-1H-purin-8-yl)-N-[3-(dimethylamino)propyl]benzenesulfonamide] |  |
| 5.31 | CCn1c(=O)c2[nH]c(-c3ccc(S(=O)(=O)O)cc3)nc2n(CC)c1=O [C2 H5, C2 H5, H, 4-SO3 K] |  |
| 8.00 | CCCn1c(=O)c2[nH]c(-c3ccc(S(=O)(=O)NCCN(C)C)cc3)nc2n(CCC)c1=O [N-[2-(Dimethylamino)ethyl]-4-(2,3,6,7-tetrahydro-2,6-dioxo-1,3-dipropyl-1H-purin-8-yl)benzenesulfonamide] |  |
